Test results published in patent US20050181462A1, “Mutant androgen receptor, cancer cells expressing the same, a method of producing them and use thereof” (priority 2002, published 2005).

Molecular target: T1, W741C type mutant AR (Homo sapiens, UniProt P10275, DUP77-80/W742C)
T1 construct: expressed in transfected cells; host or cells: Cos-7
Assay: Antagonist screening: inhibition of DHT-induced W741C mutant AR transcription activity (luciferase co-transfection)
Type: cell-based
Details: 40 nM DHT + 10 μM Compound A
Excerpt: FIG. 4 is a drawing showing the antagonistic action of Compound A on a W741C type mutant AR. […] Mean±standard error, n=16 for the only-DHT addition group and n=4 for the DHT+Compound A addition group.

T1 sequence (P10275 with tags, fused parts or gaps DUP77-80/W742C): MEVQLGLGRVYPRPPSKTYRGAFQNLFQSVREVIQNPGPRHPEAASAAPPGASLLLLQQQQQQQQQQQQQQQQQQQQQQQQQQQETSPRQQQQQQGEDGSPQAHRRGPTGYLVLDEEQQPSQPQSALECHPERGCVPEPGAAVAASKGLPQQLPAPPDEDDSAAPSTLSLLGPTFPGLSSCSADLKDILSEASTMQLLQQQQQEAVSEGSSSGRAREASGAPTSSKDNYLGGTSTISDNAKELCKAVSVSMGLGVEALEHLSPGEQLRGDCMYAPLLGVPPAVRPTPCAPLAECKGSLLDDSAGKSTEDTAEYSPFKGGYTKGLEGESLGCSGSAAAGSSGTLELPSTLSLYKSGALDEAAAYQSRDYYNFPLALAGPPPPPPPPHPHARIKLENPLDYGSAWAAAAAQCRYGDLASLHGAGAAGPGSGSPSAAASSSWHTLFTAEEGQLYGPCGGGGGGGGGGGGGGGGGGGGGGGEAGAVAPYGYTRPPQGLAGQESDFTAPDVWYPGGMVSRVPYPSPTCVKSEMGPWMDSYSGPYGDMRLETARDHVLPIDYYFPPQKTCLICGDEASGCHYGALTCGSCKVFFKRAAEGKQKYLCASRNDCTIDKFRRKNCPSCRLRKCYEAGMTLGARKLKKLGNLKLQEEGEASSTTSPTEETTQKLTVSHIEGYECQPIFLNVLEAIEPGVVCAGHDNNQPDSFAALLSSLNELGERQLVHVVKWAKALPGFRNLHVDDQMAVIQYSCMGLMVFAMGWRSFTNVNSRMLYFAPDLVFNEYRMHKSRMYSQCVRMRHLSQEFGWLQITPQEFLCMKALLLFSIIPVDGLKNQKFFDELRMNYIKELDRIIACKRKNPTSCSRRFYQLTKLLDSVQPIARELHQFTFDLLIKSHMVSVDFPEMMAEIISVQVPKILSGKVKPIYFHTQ

action on W741C type mutant AR transcription activity of DHT: antagonist action
SMILES: CCOC(=O)c1c(C)[nH]c(C)c1-c1ccc([N+](=O)[O-])cc1 [Compound A, ethyl 2,5-dimethyl-4-(4-nitrophenyl)-1H-pyrrole-3-carboxylate]
